One experiment has as its system Plasma. Description: Anticoagulant activity in human plasma assessed as concentration required to double prothrombin-based clotting time. The class given is functional.
For the next experiment, the target named is Coagulation factor X (Homo sapiens, UniProt P00742). Description: Inhibition of human factor 10a.
Chain of Coagulation factor X (P00742 41-179 limits assumed): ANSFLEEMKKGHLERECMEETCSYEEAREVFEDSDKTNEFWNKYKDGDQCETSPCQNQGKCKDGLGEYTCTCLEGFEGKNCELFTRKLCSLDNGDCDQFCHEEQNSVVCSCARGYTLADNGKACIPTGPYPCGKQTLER
Chain of Coagulation factor X (P00742 235-488 limits assumed): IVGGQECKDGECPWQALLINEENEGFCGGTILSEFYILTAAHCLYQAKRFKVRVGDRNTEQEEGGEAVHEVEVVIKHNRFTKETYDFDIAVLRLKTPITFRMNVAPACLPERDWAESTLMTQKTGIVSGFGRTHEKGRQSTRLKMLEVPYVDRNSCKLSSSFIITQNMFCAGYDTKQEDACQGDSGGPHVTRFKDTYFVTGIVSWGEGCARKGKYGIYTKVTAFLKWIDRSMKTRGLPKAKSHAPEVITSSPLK

For orientation: IC50 means the midpoint of a concentration-inhibition curve. A higher IC50 goes with weaker potency. For `COc1ccc(N/C(=N\C(=O)C2CCN(C(=O)c3ccccc3)CC2)N[C@H]2CCCCN(CC(=O)N3CCCC3)C2=O)cc1`, the Activity in the experiment on Plasma was determined as 48 µM. Half-maximal inhibition at Coagulation factor X (IC50) required 506 nM. For the compound `Cc1cc2cc(N/C(=N\C(=O)C3CCN(C(=O)c4ccccc4)CC3)N[C@H]3CCCCN(CC(=O)N4CCCC4)C3=O)ccc2o1`, in the experiment on Plasma, the Activity worked out at 7.5 µM. On Coagulation factor X, the IC50 is 10 nM. Regarding `Cc1cc2cc(N/C(=N\C(=O)c3sc(C)nc3C)N[C@H]3CCCCN(CC(=O)N4CCCC4)C3=O)ccc2o1`, the Activity in the experiment with Plasma was determined as 42 µM. Half-maximal inhibition against Coagulation factor X (IC50) was put at 17 nM. For the compound `COc1ccc(NC(=N[C@H]2CCCCN(CC(=O)N3CCCC3)C2=O)NC(=O)c2ccc(N(C)C)cc2)cc1`, at Coagulation factor X, the concentration for half-maximal inhibition (IC50) came out at 403 nM. On the same count and under the same terms, in the case of `COc1ccc(NC(=N[C@H]2CCCCN(CC(=O)N3CCCC3)C2=O)NC(=O)c2cc(OC)cc(OC)c2)cc1` it was 872 nM. For the compound `Cc1cc2cc(N/C(=N\C(=O)c3ccccc3)N[C@H]3CCCCN(CC(=O)N4CCCC4)C3=O)ccc2o1`, in the experiment with Plasma, the Activity came to 48 µM. On Coagulation factor X, `COc1ccc(NC(=N[C@H]2CCCCN(CC(=O)N3CCCC3)C2=O)NC(=O)c2ccc(F)c(F)c2)cc1` returned a 50% inhibitory concentration (IC50) of 272 nM. Regarding `Cc1cccc(N/C(=N\C(=O)c2sc(C)nc2C)N[C@H]2CCCCN(CC(=O)N3CCCC3)C2=O)c1`, the Activity in the experiment with Plasma is greater than 50 µM. At Coagulation factor X, this compound displayed a 50% inhibitory concentration (IC50) of 462 nM. In turn, `COc1ccc(N/C(=N\C(=O)c2cccc(OC)c2)N[C@H]2CCCCN(CC(=O)N3CCCC3)C2=O)cc1` displayed an IC50 against Coagulation factor X of 193 nM. At Coagulation factor X, `Cc1cccc(NC(=N[C@H]2CCCCN(CC(=O)N3CCCC3)C2=O)NC(=O)c2cccc(F)c2)c1` came in with a 50% inhibitory concentration (IC50) of 373 nM. `Cc1cccc(N/C(=N\C(=O)c2ccc(F)cc2)N[C@H]2CCCCN(CC(=O)N3CCCC3)C2=O)c1` registered an IC50 at Coagulation factor X of 222 nM.

`Cc1cccc(NC(=N[C@H]2CCCCN(CC(=O)N3CCCC3)C2=O)NC(=O)c2ccc(N(C)C)cc2)c1` returned an IC50 on Coagulation factor X of 517 nM.

As for `COc1ccc(NC(=N[C@H]2CCCCN(CC(=O)N3CCCC3)C2=O)NC(=O)c2ccc(Cl)cc2)cc1`, it took 294 nM to reach half-maximal inhibition on Coagulation factor X (IC50). `COc1ccc(NC(=N[C@H]2CCCCN(CC(=O)N3CCCC3)C2=O)NC(=O)c2cc(Cl)cc(Cl)c2)cc1` showed a concentration for half-maximal inhibition (IC50) against Coagulation factor X of 546 nM.

As for `COc1ccc(NC(=N[C@H]2CCCCN(CC(=O)N3CCCC3)C2=O)NC(=O)c2ccccc2)cc1`, 246 nM corresponded to half-maximal inhibition against Coagulation factor X (IC50). Same read-out and setting: in the case of `Cc1cccc(NC(=N[C@H]2CCCCN(CC(=O)N3CCCC3)C2=O)NC(=O)c2ccc(F)c(F)c2)c1` it was 271 nM. With `COc1ccc(NC(=N[C@H]2CCCCN(CC(=O)N3CCCC3)C2=O)NC(=O)c2cccc(Cl)c2)cc1`, at Coagulation factor X, the IC50 was found to be 267 nM. At Coagulation factor X, `COc1ccc(C(=O)NC(=N[C@H]2CCCCN(CC(=O)N3CCCC3)C2=O)Nc2cccc(C)c2)cc1OC` came in with an IC50 of 400 nM.

In turn, `Cc1cccc(NC(=N[C@H]2CCCCN(CC(=O)N3CCCC3)C2=O)NC(=O)c2ccccc2)c1` returned a concentration for half-maximal inhibition (IC50) against Coagulation factor X of 245 nM.

Take `Cc1cccc(N/C(=N\C(=O)c2ccno2)N[C@H]2CCCCN(CC(=O)N3CCCC3)C2=O)c1`: the Activity in the experiment with Plasma was 50 µM. At Coagulation factor X, this compound returned a half-maximal inhibitory concentration (IC50) of 628 nM.

As for `Cc1cccc(N/C(=N\C(=O)c2ccc(Cl)cc2)N[C@H]2CCCCN(CC(=O)N3CCCC3)C2=O)c1`, inhibition against Coagulation factor X was half-maximal at 198 nM (IC50).

For the compound `COc1cc(OC)cc(C(=O)/N=C(\Nc2cccc(C)c2)N[C@H]2CCCCN(CC(=O)N3CCCC3)C2=O)c1`, inhibition at Coagulation factor X was half-maximal at 1160 nM (IC50). At Coagulation factor X, `COc1cccc(C(=O)NC(=N[C@H]2CCCCN(CC(=O)N3CCCC3)C2=O)Nc2cccc(C)c2)c1` came in with a half-inhibitory concentration (IC50) of 276 nM. For the compound `Cc1cc2cc(N/C(=N\C(=O)c3ccno3)N[C@H]3CCCCN(CC(=O)N4CCCC4)C3=O)ccc2o1`, the Activity with Plasma stood at 17.7 µM. On Coagulation factor X, this compound gave an IC50 of 14 nM. As to `Cc1cccc(N/C(=N\C(=O)C2CCN(C(=O)c3ccccc3)CC2)N[C@H]2CCCCN(CC(=O)N3CCCC3)C2=O)c1`, the Activity with Plasma is greater than 50 µM. Besides, the 50% inhibitory concentration (IC50) at Coagulation factor X is 1070 nM. On to `COc1ccc(N/C(=N\C(=O)c2sc(C)nc2C)N[C@H]2CCCCN(CC(=O)N3CCCC3)C2=O)cc1`, for which, in the experiment on Plasma, the Activity was greater than 50 µM. The compound also yielded a concentration for half-maximal inhibition (IC50) against Coagulation factor X of 386 nM.

At Coagulation factor X, `COc1ccc(N/C(=N\C(=O)c2ccc(OC)cc2)N[C@H]2CCCCN(CC(=O)N3CCCC3)C2=O)cc1` showed an IC50 of 227 nM. On the same count and under the same terms, then `Cc1cccc(NC(=N[C@H]2CCCCN(CC(=O)N3CCCC3)C2=O)NC(=O)c2cc(Cl)cc(Cl)c2)c1`, with 835 nM; and `COc1ccc(NC(=N[C@H]2CCCCN(CC(=O)N3CCCC3)C2=O)NC(=O)c2cc(F)cc(F)c2)cc1`, with 208 nM.

Consider `COc1ccc(N/C(=N\C(=O)c2ccno2)N[C@H]2CCCCN(CC(=O)N3CCCC3)C2=O)cc1`, for which, in the experiment on Plasma, the Activity came out at 45 µM. The compound also gave a concentration for half-maximal inhibition (IC50) on Coagulation factor X of 380 nM. In the case of `Cc1cccc(NC(=N[C@H]2CCCCN(CC(=O)N3CCCC3)C2=O)NC(=O)c2cccc(Cl)c2)c1`, the concentration for half-maximal inhibition (IC50) on Coagulation factor X worked out at 371 nM. In turn, `COc1ccc(C(=O)NC(=N[C@H]2CCCCN(CC(=O)N3CCCC3)C2=O)Nc2cccc(C)c2)cc1` returned a concentration for half-maximal inhibition (IC50) on Coagulation factor X of 709 nM. The same measure, in the same setting: in the case of `COc1ccc(NC(=N[C@H]2CCCCN(CC(=O)N3CCCC3)C2=O)NC(=O)c2cccc(F)c2)cc1` it was 256 nM; in that of `COc1ccc(N/C(=N\C(=O)c2ccc(F)cc2)N[C@H]2CCCCN(CC(=O)N3CCCC3)C2=O)cc1`, 368 nM; in that of `Cc1cccc(NC(=N[C@H]2CCCCN(CC(=O)N3CCCC3)C2=O)NC(=O)c2cc(F)cc(F)c2)c1`, 396 nM. `COc1ccc(N/C(=N\C(=O)c2ccc(OC)c(OC)c2)N[C@H]2CCCCN(CC(=O)N3CCCC3)C2=O)cc1`: the midpoint of inhibition against Coagulation factor X, the IC50, lay at 494 nM.

The values are drawn from ChEMBL document CHEMBL1155925, “Synthesis and evaluation of acylguanidine FXa inhibitors” (Bioorg Med Chem Lett, 2008).
